The values below come from patent publication US20230391871A1, “MONOAMINE OXIDASE BLOCKADE THERAPY FOR TREATING CANCER THROUGH REGULATING TUMOR ASSOCIATED MACROPHAGES (TAMS)” (THE REGENTS OF THE UNIVERSITY OF CALIFORNIA, priority 2020, published 2023).

Test [1] concerns A375-A2-ESO tumour cells / ESO-T cells / polarized MDMs. The method, then:
(§1) FIG. 6: MAO-A blockade for cancer immunotherapy-human TAM and clinical data correlation studies. a, Studying the MAOA gene expression in human M1- and M2-like macrophages. A transcriptome data set (GSE35449) was analyzed using the prioritization function of a Tumour Immune Dysfunction and Exclusion (TIDE) computational method. Heatmaps are presented, showing the M2-like/M1-like mRNA fold change of MAOA gene as well as a selected group of immunosuppressive, immunostimulatory, and immune checkpoints signature genes. b-d, Studying the MAO-A expression in in vitro differentiated and IL-4/IL-13-polarized human monocyte-derived macrophages (MDMs: n=4). MDMs were generated by culturing healthy donor peripheral blood monocytes over 6 days, followed by stimulation with IL-4 and IL-13 for another 2 days. NC, no cytokine stimulation. (b,c) QPCR analyses of MAOA mRNA expression in MDMs over the 6-day MDM differentiation culture (b) and post the IL-4/IL-13-induced polarization (c). (d) Western blot analyses of MAO-A protein expression in IL-4/IL-13-polarized MDMs. e-g, Studying the in vitro polarization of human MDMs (n=3). MDMs were stimulated with IL-4/IL-13 for 2 days, in the presence or absence of phenelzine (Phe, 20 μM) treatment. NC, no cytokine stimulation: NT, no phenelzine treatment. (e) FACS analyses of CD206 expression on MDMs. (f,g) QPCR analyses ALOX15 (f) and (CD200R1 (g) mRNA expression in MDMs. h-j, Studying the in vivo polarization of human macrophages in a human Tumour-TAM Co-Inoculation xenograft mouse model (n=4). (h) Experimental design. FACS-sorted healthy donor peripheral blood monocytes were mixed with human A375 melanoma cells and s.c. injected into NSG mice to form solid tumours, with or without phenelzine treatment (Phe or NT). (i,j) FACS analyses of CD206 (i) and CD273 (j) expression on TAMs (gated as hCD45^+hCD11b^+hCD14^+ cells of total TIIs) isolated from experimental mice at day 10. k-m, Studying the in vitro efficacy of phenelzine in reprogramming human TAMs and enhancing human T cell antitumour reactivity (n=6). (k) Schematics showing an in vitro 3D human tumour/TAM/T cell organoid culture. A375-A2-ESO, human A375 melanoma cell line engineered to express an NY-ESO-1 tumour antigen as well as its matching HLA-A2 molecule: ESO-T, human peripheral blood CD8 T cells engineered to express an NY-ESO-1-specific TCR: Polarized TAM, human MDMs polarized in vitro with IL-4/IL-13 in the presence or absence of phenelzine treatment (denoted as TAM Phe or TAM NT, respectively). Cells were mixed and cultured as organoids for two days before analysis. (l,m) FACS quantification of live tumour cells (gated as hCD45^− cells) and ESO-T cells (gated as hCD45^+hCD8^+ESO-TCR^+ cells). n, QPCR analyses of MAOA mRNA expression in human TAMs isolated from ovarian cancer patient tumour samples (n=4). Monocytes isolated from random healthy donor peripheral blood were included as controls (n=10). Mo, monocyte. o-r, Clinical data correlation studies. The correlation function of a TIDE computational method was utilized. The association between the intratumoural MAOA gene expression levels and overall survival (OS) of cancer patients was computed through the two-sided Wald test in the Cox-PH regression. For each patient cohort, tumour samples were divided into the MAOA-high (samples with MAOA expression one standard deviation above the average) and MAOA-low (remaining samples) groups, followed by analysing the OS of each group. TIDE analyses of an ovarian cancer patient cohort (GSE26712, n=182: o), a lymphoma patient cohort (GSE10846, n=388: p), a breast cancers patient cohort (GSE9893, n=148: q), and a melanoma patient cohort with anti-PD-1 therapy (PRJEB23709, n=41: r). Representative of 1 (n), 2 (b-d, h-j) and 3 (e-g, k-m) experiments. All data are presented as the mean±SEM. ns, not significant, *P<0.05, **P<0.01, and ***P<0.001, by 1-way ANOVA (l, m), 2-way ANOVA (e-g), or by Student's t test (i, j, n).

A further test deals with human TAMs. The conditions noted are these: A375 + human monocytes s.c. in NSG mice; phenelzine 30 mg/kg/day i.p.; day 10. The protocol: as §1
Test [2] relates to human monocyte-derived macrophages (MDMs). The conditions noted are these: phenelzine 20 μM, IL-4/IL-13 for 2 days. The method, then: as §1
[3] abbreviates: ESO-T cells co-cultured with phenelzine-treated vs non-phenelzine-treated MDMs.

SMILES strings stand for the structures.

With `NNCCc1ccccc1` [phenelzine], in test [1] (setting [3]), the “CD25 expression on ESO-T cells” value is “increased”, the “CD62L expression on ESO-T cells” value is reported as “decreased” and the ESO-T cell number entry is “increased”. The “immunosuppressive effect of IL-4/IL-13-polarized MDMs on ESO-T cell-mediated killing of A375-A2-ESO tumour cells” value in test [1] (phenelzine treatment during MDM polarization, organoid cultured 2 days) is on record as “largely alleviated”. In the test on human TAMs, the “CD206 expression on human TAMs (FACS)” value is given as “decreased expression”, the “CD273 expression on human TAMs (FACS)” value is “decreased expression” and the “immunosuppressive polarization of human TAMs in vivo” value is “effectively suppressed”. For the same molecule, in test [2], the “ALOX15 mRNA expression in MDMs (QPCR)” value is given as “decreased expression”, the “CD200R1 mRNA expression in MDMs (QPCR)” value is given as “decreased expression”, the “CD206 expression on MDMs (FACS)” value was “decreased expression” and the “CD273 expression on MDMs (FACS)” value was “decreased expression”. The “IL-4/IL-13-induced immunosuppressive polarization of MDMs” value in test [2] is given as “significantly inhibited”.
